Results taken from US6403597B1, “Administration of phosphodiesterase inhibitors for the treatment of premature ejaculation” (Vivus, Inc., priority 1997, dated 2002).

What was measured:
[1] = test system: heterosexual men suffering from primary premature ejaculation; details: male, human, in vivo, 4 weeks; for No. patients with side effects / patients with side effects (%): po
Protocol: (§1) A double-blind randomized crossover study was performed with 31 heterosexual men suffering from primary premature ejaculation, defined for the purpose of the study as an intravaginal ejaculation latency time (IVELT) of less than 2 minutes. Exclusion criteria included the following: (a) history of a psychiatric disorder; (b) current physical illness; (c) previous surgery or drug therapy with an active agent known to affect sexual function; (d) current substance abuse; (e) patients with secondary premature ejaculation combined with erectile dysfunction. All patients were asked not to use condoms or topical penile applications.
(§2) Treatment phases comprised five four-week consecutive treatment periods, each separated by a two-week washout period. […] The patients were randomly assigned to receive clomipramine hydrocloride (25 mg), sertraline hydrochloride (50 mg), paroxetine hydrochloride (20 mg), or sildenafil citrate (50 mg), or instructed to use the pause-squeeze technique developed by Masters and Johnson (Masters and Johnson, Human Sexual Inadequacy, Little, Brown & Company, Boston, Mass., 1970). The drugs were administered as needed 3 to 5 hours before planned intercourse and not more than twice a week. The pause-squeeze technique was used during intercourse. Each patient was randomly assigned to receive any of the available treatments as the first treatment and a sequence of treatment regimens. The assignment was unknown by the patient. Subjects were asked to complete a questionnaire regarding intravaginal ejaculation latency time of the last two consecutive experiences of intercourse, frequency of intercourse and possible side effects. The first nine items of the sexual satisfaction questionnaire designed by Althof et al. (Althof et al.(1999), “EDITS: Development of Questionnaires for Evaluating Satisfaction with Treatment for Erectile Dysfunction,” Urology 53:[…]) was used to measure the degree of sexual satisfaction, with higher scores indicating greater satisfaction. All measurements were obtained before treatment, after each treatment and after each washout period. Twenty healthy men who reported a sexual history free of symptoms of premature ejaculation served as a control group.
(§3) Statistical analysis: The variables in this study were statistically processed using the SPSS program for MicroSoft Windows®, standard version, release 8.0. The data were subjected to the Kolmogorov-Smirnov one-sample test, to test for normal distribution. […] Nonparametric statistical tests were used to assess differences in the measurements. Friedman's two-way analysis of variance was used for comparison between all the treatment periods. Wilcoxon signed rank test was used for evaluation of measures between baseline and after each treatment and also between every two treatment periods. The relationship between parameters was quantified by using the Spearman rank correlation coefficient. Chi-square and Fisher exact tests were used for comparison of the incidence of side effects among different treatments. Student's t-test and Chi-square test were used for comparison between the study group and control group. A two-tailed P-value <0.05 was considered significant.

[2] = test system: heterosexual men suffering from primary premature ejaculation; assay: Double-blind randomized crossover study of orally administered active agents in treating premature ejaculation (efficacy measures); format: in vivo; design: Anxiety score, Median: scale not given here; details: for comparison between treatments in ejaculation latency time and sexual satisfaction score, in words: Wilcoxon signed rank test; for IVELT, Range / Anxiety score, Range: after four-week as-needed oral treatment; for IVELT, Range: baseline range 0.5-1.5; for Anxiety score, Range: baseline range 5-25; for Anxiety score, Median / Sexual satisfaction score, Median / Sexual satisfaction score, Range: after four-week treatment; for Anxiety score, Median: oral, as needed 3 to 5 hours before intercourse, clomipramine 25 mg, sertraline 50 mg, paroxetine 20 mg, sildenafil citrate 50 mg, baseline median 12; for median intravaginal ejaculation latency time: after four-week treatments, pretreatment median 1 minutes, all P<0.0001; for Sexual satisfaction score, Median / Sexual satisfaction score, Range: first nine items of EDITS questionnaire; for Sexual satisfaction score, Median: higher scores = greater satisfaction; for IVELT, Median: intravaginal ejaculation latency time after four-week as-needed oral treatment, baseline median 1; for delay of intravaginal ejaculation latency time, in words: treatment on an as needed basis; for IVELT during washout periods, Median / IVELT during washout periods, Range: two-week washout period after the treatment
Protocol: as §1, §2, §3

CN(C)CCCN1c2ccccc2CCc2ccc(Cl)cc21 [Clomipramine, clomipramine]
Side effects (no.): drowsiness [1]: 1
Side effects (no.): dry mouth [1]: 3
Side effects (no.): nausea [1]: 1
Side effects (no.): sleepiness [1]: 2
No. patients with side effects [1]: 7
patients with side effects (%) [1]: 25%
comparison between treatments in ejaculation latency time and sexual satisfaction score, in words [2]: more or less equivalent to each other
IVELT, Range [2]: (1-8) min
Anxiety score, Range [2]: (4-22)
Anxiety score, Median [2]: 11
median intravaginal ejaculation latency time [2]: 4 min
Sexual satisfaction score, Median [2]: 11
Sexual satisfaction score, Range [2]: (0-25)
IVELT, Median [2]: 4 min
patients with prolongation of IVELT (%) ([2]; of 31 men): 71%
delay of intravaginal ejaculation latency time, in words [2]: statistically significant and clinically relevant delay
IVELT during washout periods, Median [2]: 1 min
IVELT during washout periods, Range [2]: (0.5-1.5) min

Fc1ccc([C@@H]2CCNC[C@H]2COc2ccc3c(c2)OCO3)cc1 [Paroxetine, paroxetine]
Side effects (no.): dry mouth [1]: 2
Side effects (no.): nausea [1]: 1
Side effects (no.): yawning [1]: 2
No. patients with side effects [1]: 5
patients with side effects (%) [1]: 17.2%
comparison between treatments in ejaculation latency time and sexual satisfaction score, in words [2]: superior to the pause-squeeze technique
comparison between treatments in ejaculation latency time and sexual satisfaction score, in words ([2]; listed as paroxetine): more or less equivalent to each other
IVELT, Range [2]: (2-10) min
Anxiety score, Range [2]: (5-23)
Anxiety score, Median [2]: 9
median intravaginal ejaculation latency time [2]: 4 min
Sexual satisfaction score, Median [2]: 12
Sexual satisfaction score, Range [2]: (0-29)
IVELT, Median [2]: 4 min
patients with prolongation of IVELT (%) ([2]; of 31 men): 80.6%
delay of intravaginal ejaculation latency time, in words [2]: statistically significant and clinically relevant delay
IVELT during washout periods, Median [2]: 1 min
IVELT during washout periods, Range [2]: (0.5-2) min

CN[C@H]1CC[C@@H](c2ccc(Cl)c(Cl)c2)c2ccccc21 [Sertraline, sertraline]
Side effects (no.): anorexia [1]: 1
Side effects (no.): drowsiness [1]: 1
Side effects (no.): nausea [1]: 1
No. patients with side effects [1]: 3
patients with side effects (%) [1]: 10.3%
comparison between treatments in ejaculation latency time and sexual satisfaction score, in words [2]: more or less equivalent to each other
IVELT, Range [2]: (1-10) min
Anxiety score, Range [2]: (5-22)
Anxiety score, Median [2]: 11
median intravaginal ejaculation latency time [2]: 3 min
Sexual satisfaction score, Median [2]: 10
Sexual satisfaction score, Range [2]: (0-31)
IVELT, Median [2]: 3 min
patients with prolongation of IVELT (%) ([2]; of 31 men): 71.2%
delay of intravaginal ejaculation latency time, in words [2]: statistically significant and clinically relevant delay
IVELT during washout periods, Median [2]: 1 min
IVELT during washout periods, Range [2]: (0.5-2) min

CCCc1nn(C)c2c(=O)[nH]c(-c3cc(S(=O)(=O)N4CCN(C)CC4)ccc3OCC)nc12 [Sildenafil, 5-[2-ethoxy-5-(4-methyl-1-piperazinylsulphonyl)phenyl]-1-methyl-3-n-propyl-1,6-dihydro-7H-pyrazolo[4,3-dipyrimidin-7-one]]
Side effects (no.): flushing [1]: 2
Side effects (no.): headache [1]: 2
Side effects (no.): nasal congestion [1]: 1
No. patients with side effects [1]: 5
patients with side effects (%) [1]: 17.9%
IVELT, Range [2]: (5-30) min
Anxiety score, Range [2]: (4-15)
Anxiety score, Median [2]: 8
median intravaginal ejaculation latency time [2]: 15 min
median IVELT, median sexual satisfaction score and median IVELT during the washout period, according to Friedman's test, in words ([2]; comparison between all treatment periods): significant increase
Sexual satisfaction score, Median [2]: 30
Sexual satisfaction score, Range [2]: (17-34)
effectiveness in the treatment of premature ejaculation, in words ([2]; in vivo): highly effective
IVELT, Median [2]: 15 min
patients with prolongation of IVELT (%) ([2]; of 31 men): over 90%
patients with prolongation of IVELT (number of patients) ([2]; of 31 men): 28 patients
patients with prolongation of IVELT (%) ([2]; of 31 men, listed as sildenafil): 90.3%
delay of intravaginal ejaculation latency time, in words [2]: statistically significant and clinically relevant delay
IVELT during washout periods, Median [2]: 1.75 min
IVELT during washout periods, Range [2]: (0.5-8) min
factor by which IVELT was increased, on average ([2]; versus pretreatment): 15
